Active and inactive are the calls of the source.
How the values were obtained:
HeLa [1] = assay: Drug uptake in human HeLa cells assessed as perinuclear localization at 0.5 uM incubated for 18 hrs prior to UV irradiation by fluorescence microscopy; format: ADME, cell-based
HeLa [2] = assay: Induction of apoptosis in human HeLa cells assessed as microtubule alteration at 0.5 uM incubated for 18 hrs followed by red light irradiation after 6 to 24 hrs by […]; format: functional, cell-based
HeLa [3] = assay: Induction of necrosis in human HeLa cells at 0.5 uM incubated for 18 hrs prior to red light irradiation measured after 6 to 24 hrs by Hoechst-33258 staining; format: functional, cell-based
HeLa [4] = assay: Drug uptake in human HeLa cells at 0.5 uM by flow cytometry; format: ADME, cell-based; conditions: TDE = time-dependent effect
HeLa [5] = assay: Phototoxicity against human HeLa cells at 1 uM incubated for 18 hrs prior to 2.4 J/cm'2 red light irradiation by MTT assay; format: functional
HeLa [6] = assay: Induction of necrosis in human HeLa cells assessed as breaking of giant bubble at 0.75 uM incubated for 18 hrs prior to red light irradiation measured after 6 hrs by phase contrast microscopy; format: functional, cell-based
HeLa [7] = assay: Induction of apoptosis in human HeLa cells assessed as reduction in F-actin expression at 0.75 to 0.5 uM incubated for 18 hrs by immunostaining assay; format: cell-based
HeLa [8] = assay: Induction of apoptosis in human HeLa cells assessed as trypsin-mediated cell detachment at 0.5 to 0.75 uM incubated for 18 hrs prior to red light irradiation by hemocytometer; format: functional, cell-based
HeLa [9] = assay: Induction of apoptosis in human HeLa cells assessed as reduction in vinculin expression at 0.75 to 0.5 uM incubated for 18 hrs by immunostaining assay; format: cell-based
HeLa [10] = assay: Induction of necrosis in human HeLa cells assessed as giant bubble formation at 0.75 uM incubated for 18 hrs prior to red light irradiation measured after 1 hr by phase contrast microscopy; format: functional, cell-based
HeLa [11] = assay: Induction of apoptosis in human HeLa cells assessed as cytochrome c relocation at 0.75 to 0.5 uM after 18 hrs by immunofluorescence method; format: cell-based
HeLa [12] = assay: Induction of apoptosis in human HeLa cells assessed as reduction in vinculin expression at 0.5 uM incubated for 18 hrs followed by red light irradiation measured after 24 hrs by immunostaining assay; format: functional, cell-based
HeLa [13] = assay: Induction of necrosis in human HeLa cells at 0.5 uM incubated for 18 hrs prior to red light irradiation measured after 6 to 24 hrs by neutral red staining; format: functional, cell-based
HeLa [14] = assay: Phototoxicity against human HeLa cells at 0.5 uM incubated for 18 hrs prior to red light irradiation measured after 3 to 24 hrs by trypan blue exclusion assay; format: functional, cell-based
HeLa [15] = assay: Induction of apoptosis in human HeLa cells assessed as reduction in vinculin expression at 0.5 uM incubated for 18 hrs followed by red light irradiation measured after 3 hrs by immunostaining assay; format: functional, cell-based
HeLa [16] = assay: Phototoxicity against human HeLa cells assessed as cell viability at > 0.5 uM incubated for 18 hrs prior to 3.6 J/cm'2 red light irradiation by MTT assay; format: functional
[17] = Cytotoxicity against human HeLa cells assessed as cell viability after 18 hrs by MTT assay in presence of 10 % FCS; format: cell-based; conditions: read-out: Activity
HeLa [18] = assay: Ratio of drug uptake in human HeLa cells at 0.5 uM after 18 hrs to drug uptake in human HeLa cells at 0.5 uM after 1 hr; format: ADME, cell-based
HeLa [19] = assay: Induction of ROS generation in human HeLa cells assessed as singlet oxygen luminescence signal at 5 uM after 18 hrs; format: functional, cell-based
HeLa [20] = assay: Induction of apoptosis in human HeLa cells assessed as nuclear fragmentation at 0.5 uM incubated for 18 hrs prior to red light irradiation measured after 3 hrs by Hoechst-33258 staining; format: functional, cell-based
HeLa [21] = assay: Induction of necrosis in human HeLa cells at 0.5 to 0.75 uM incubated for 18 hrs by Hoechst-33258 staining; format: cell-based
HeLa [22] = assay: Drug uptake in human HeLa cells at 0.5 uM after 18 hrs by flow cytometry; format: ADME, cell-based
HeLa [23] = assay: Induction of apoptosis in human HeLa cells incubated for 18 hrs prior to red light irradiation measured after 24 hrs by trypan blue exclusion assay; format: functional, cell-based
HeLa [24] = assay: Induction of apoptosis in human HeLa cells incubated for 18 hrs prior to red light irradiation measured after 3 hrs by trypan blue exclusion assay; format: functional, cell-based
HeLa [25] = assay: Induction of apoptosis in human HeLa cells assessed as membrane blebbing at 0.5 uM incubated for 18 hrs prior to red light irradiation measured after 6 hrs by phase contrast microscopy; format: functional, cell-based
[26] = Cytotoxicity against human HeLa cells assessed as cell viability after 18 hrs by MTT assay in presence of 1 % FCS; format: cell-based; conditions: read-out: Activity
HeLa [27] = assay: Induction of ROS generation in human HeLa cells assessed as singlet oxygen luminescence signal at 5 uM after 18 hrs in presence of sodium azide; format: functional, cell-based
HeLa [28] = assay: Induction of necrosis in human HeLa cells assessed as disorganization of F-actin at 0.75 uM incubated for 18 hrs followed by red light irradiation measured after 24 hrs by immunostaining; format: functional, cell-based
HeLa [29] = assay: Induction of apoptosis in human HeLa cells assessed as reduction in F-actin expression at 0.5 uM incubated for 18 hrs followed by red light irradiation measured after 6 hrs by immunostaining assay; format: functional, cell-based
HeLa [30] = assay: Induction of necrosis in human HeLa cells assessed as chromatin condensation at 0.75 uM incubated for 18 hrs prior to red light irradiation measured after 1 hr by Hoechst-33258 staining; format: functional, cell-based
HeLa [31] = assay: Induction of necrosis in human HeLa cells assessed as cellular damage at 0.75 uM incubated for 18 hrs followed by red light irradiation measured after 24 hrs; format: functional, cell-based
HeLa [32] = assay: Induction of apoptosis in human HeLa cells assessed as reduction in F-actin expression at 0.5 uM incubated for 18 hrs followed by red light irradiation measured after 3 hrs by immunostaining assay; format: functional, cell-based

COCc1ccc(C2=Cc3nc2ccc2[nH]c(cc2-c2ccc(C[n+]4ccccc4)cc2)c2nc(ccc4[nH]c3cc4-c3ccc(C[n+]4ccccc4)cc3)C(c3ccc(C[n+]4ccccc4)cc3)=C2)cc1.[Br-].[Br-].[Br-]
inactive: Activity (HeLa [27])
active: Activity (HeLa [2]) | Activity (HeLa [3]) | Activity (HeLa [6]) | Activity (HeLa [8]) | Activity (HeLa [10]) | Activity (HeLa [12]) | Activity (HeLa [13]) | Activity (HeLa [14]) | Activity (HeLa [15]) | Activity (HeLa [19]) | Activity (HeLa [20]) | Activity (HeLa [23]) | Activity (HeLa [24]) | Activity (HeLa [25]) | Activity (HeLa [28]) | Activity (HeLa [29]) | Activity (HeLa [30]) | Activity (HeLa [31]) | Activity (HeLa [32])
tde: Drug uptake (HeLa [4])
Non-toxic: Activity (HeLa [7]) | Activity (HeLa [9]) | Activity (HeLa [11]) | Activity (HeLa [21])
<10%: Activity (HeLa [16])
3: Ratio (HeLa [18])
100%: viability at 18 h [17]
Active: Drug uptake (HeLa [1]) | Drug uptake (HeLa [22])
98.6%: viability at 18 h [26]
>50%: Activity (HeLa [5])
